Test results as given in patent US20050124595A1, “Compositions and methods for treating glaucoma and ocular hypertension” (priority 2002, published 2005).

Experiments:
Mice (CD-1) = assay: Tremorgen assay, mouse model; assay type: in vivo; conditions: CD-1 mice; for Tremors: intraperitoneal
Method: Tremorgen Assay A mouse model was developed to evaluate the tremorgen potential of the instance compounds. Mice (CD-1) were injected intraperitoneally at 5 mg/Kg with each compound and observed by investigators for 1 hour for any signs of tremors as well as other behaviors not seen in control mice.
A known tremorgen, Aflatrem, consistently produces tremors in injected mice within 15 minutes at 1 and 5 mg/Kg.

[1] = molecular target: T1, high-conductance calcium-activated potassium (maxi-K) channels (Homo sapiens, UniProt Q12791); assay: Patch clamp recordings of maxi-K channel currents in excised inside-out membrane patches; assay type: biochemical; conditions: from reduction in peak current, 10 nM compound on internal side of membrane patch, held at -80 mV, steps typically to +50 mV
T1 construct: expressed in transfected cells; host or cells: CHO cells (α-subunit alone) and HEK293 cells (α- and β-subunits)
Source text: Patch clamp recordings of currents flowing through high-conductance calcium-activated potassium (maxi-K) channels were made from membrane patches excised from CHO cells constitutively expressing the α-subunit of the maxi-K channel and from HEK293 cells constitutively expressing both α- and β-subunits using conventional techniques (Hamill et al., 1981, Pflügers Archiv. 391, 85-100) at room temperature. Glass capillary tubing (Garner #7052) was pulled in two stages to yield micropipettes with tip diameters of approximately 1-2 microns. Pipettes were typically filled with solutions containing (mM): 150 KCl, 10 Hepes (4-(2-hydroxyethyl)-1-piperazine […]), 1 MgCl2, 0.01 CaCl2, and adjusted to pH 7.20 with 3.7 mM KOH. After forming a high resistance ([…]) seal between the plasma membrane and the pipette, the pipette was withdrawn from the cell, forming an excised inside-out membrane patch. The patch was excised into a bath solution containing (mM): 150 KCl, 10 Hepes, 5 EGTA (ethylene glycol bis(β-aminoethyl ether)-N,N,N′,N′-tetraacetic acid), sufficient Ca to yield a free Ca concentration of 1-5 μM, and the pH was adjusted to 7.2 with KOH. For example, 4.193 mM Ca was added to give a free concentration of 1 μM at 22° C. An EPC9 amplifier (HEKA Elektronic, Lambrect, Germany) was used to control the voltage and to measure the currents flowing across the membrane patch. The input to the headstage was connected to the pipette solution with a Ag/AgCl wire, and the amplifier ground was connected to the bath solution with a Ag/AgCl wire covered with a tube filled with agar dissolved in 0.2 M KCl. […]
The effects of the compounds of the present invention on maxi-K channels was examined in excised inside-out membrane patches. […] The fraction of channels blocked in each experiment was calculated from the reduction in peak current caused by application of 10 nM of specified compound to the internal side of the membrane patch. […]

T1 sequence (Q12791 whole entry): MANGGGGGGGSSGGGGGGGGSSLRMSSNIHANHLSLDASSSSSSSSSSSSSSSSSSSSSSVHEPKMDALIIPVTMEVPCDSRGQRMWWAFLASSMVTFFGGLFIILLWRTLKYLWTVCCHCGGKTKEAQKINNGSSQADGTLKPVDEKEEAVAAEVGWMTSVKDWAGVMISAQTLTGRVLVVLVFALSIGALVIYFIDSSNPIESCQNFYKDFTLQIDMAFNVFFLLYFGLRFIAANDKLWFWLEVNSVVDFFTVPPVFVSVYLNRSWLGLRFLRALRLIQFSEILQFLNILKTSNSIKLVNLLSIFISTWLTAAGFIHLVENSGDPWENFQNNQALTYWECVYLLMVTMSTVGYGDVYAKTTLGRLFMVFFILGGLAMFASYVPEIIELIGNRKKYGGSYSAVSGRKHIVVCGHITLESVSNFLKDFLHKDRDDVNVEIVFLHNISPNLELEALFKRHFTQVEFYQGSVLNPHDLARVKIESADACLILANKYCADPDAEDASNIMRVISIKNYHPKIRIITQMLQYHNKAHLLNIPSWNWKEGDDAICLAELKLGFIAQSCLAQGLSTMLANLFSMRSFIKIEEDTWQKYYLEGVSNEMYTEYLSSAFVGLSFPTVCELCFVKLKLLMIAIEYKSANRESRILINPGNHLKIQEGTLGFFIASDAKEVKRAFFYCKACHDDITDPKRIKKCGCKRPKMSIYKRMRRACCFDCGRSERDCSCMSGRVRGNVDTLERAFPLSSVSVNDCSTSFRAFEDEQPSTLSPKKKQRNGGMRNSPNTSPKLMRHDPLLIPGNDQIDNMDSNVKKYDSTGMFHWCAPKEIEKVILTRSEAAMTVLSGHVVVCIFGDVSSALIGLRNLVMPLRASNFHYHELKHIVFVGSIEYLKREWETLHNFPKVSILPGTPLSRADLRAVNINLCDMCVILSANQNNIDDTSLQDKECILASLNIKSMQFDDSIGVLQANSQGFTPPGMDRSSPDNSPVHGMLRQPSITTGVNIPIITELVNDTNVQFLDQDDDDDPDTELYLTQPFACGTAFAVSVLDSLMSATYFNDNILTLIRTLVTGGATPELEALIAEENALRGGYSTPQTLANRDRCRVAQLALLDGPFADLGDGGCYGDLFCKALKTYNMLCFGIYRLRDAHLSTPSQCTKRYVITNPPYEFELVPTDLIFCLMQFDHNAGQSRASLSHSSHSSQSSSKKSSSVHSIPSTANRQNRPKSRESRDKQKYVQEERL

Compound	Tremors (Mice (CD-1); 5 mg/Kg, observed for 1 hour)	FRACTION BLOCKED (10 nM) [1]	time to tremors after injection (Mice (CD-1); 1 and 5 mg/Kg)	Tremors (Mice (CD-1); 1 and 5 mg/Kg)
CC(C)=CC1OC2C(OC3=CC[C@]4(C)[C@@]5(C)c6[nH]c7ccccc7c6C[C@@H]5CC[C@@]4(O)C34OC24)C(C)(C)O1 (some centres unmarked) [Compound II]	None	0.99-1	–	–
Aflatrem [reference compound]	–	–	≤ 15 min	Tremors
CC(C)=CCc1cccc2[nH]c3c(c12)C[C@@H]1CC[C@@]2(O)C45OC4C4OC(C6OC6(C)C)OC(C)(C)C4OC5=CC[C@]2(C)[C@@]31C (some centres unmarked) [Compound III]	None	0.99-1	–	–
CC1(C)OC1Cc1cccc2[nH]c3c(c12)C[C@@H]1CC[C@@]2(O)C45OC4C4OC(C6OC6(C)C)OC(C)(C)C4OC5=CC[C@]2(C)[C@@]31C (some centres unmarked) [Compound I]	None	0.9	–	–
